Experiment [1] concerns human pancreatic chymotrypsin. Nature of the experiment: Specificity assay, chymotrypsin. In kind it is biochemical. Particulars: read-out: Chymotrypsin activity in the specificity assays. Here is the method: The specificities of compounds of the present disclosure were determined against a variety of serine proteases: human neutrophil elastase (HNE), porcine pancreatic elastase (PPE) and human pancreatic chymotrypsin and one cysteine protease: human liver cathepsin B. In all cases a 96-well plate format protocol using a fluorometric Amino-Methyl-Coumarin (AMC) substrate specific for each enzyme was used as described previously (PCT Patent Application No. WO 00/09543) with some modifications to the serine protease assays. All enzymes were purchased from Sigma, EMDbiosciences while the substrates were from Bachem, Sigma and EMDbiosciences.
Compound concentrations varied from 100 to 0.4 μM depending on their potency. The enzyme assays were each initiated by addition of substrate to enzyme-inhibitor pre-incubated for 10 min at room temperature and hydrolysis to 15% conversion as measured on cytofluor.
50 mM Tris(hydroxymethyl)aminomethane hydrochloride (Tris-HCl) pH 8, 0.5 M Sodium Sulfate (Na2SO4), 50 mM NaCl, 0.1 mM EDTA, 3% DMSO, 0.01% Tween-20 with 5 μM LLVY-AMC and 1 nM Chymotrypsin.
The percentage of inhibition was calculated using the formula: [1−((UVinh−UVblank)/(UVctl−UVblank))]×100
A non-linear curve fit was applied to the inhibition-concentration data, and the 50% effective concentration (IC50) was calculated by the use of Excel XLfit software.

For experiment [2], the target named is T1, HCV NS3/4A protease complex, J4L6S strain (1b genotype) (Hepatitis C virus genotype 1b, UniProt O92972, C1454S/C1711G).
T1 construct: DNA encoding the recombinant HCV NS3/4A protease complex (amino acids 1027 to 1711) for these strains; made in house; host or cells: Escherichia coli BL21 (DE3), pET21b
Briefly: FRET peptide assay to monitor HCV NS3/4A proteolytic activity (J4L6S strain). The experiment is classed as biochemical. Particulars: read-out: IC50 against NS3/4A J4L6S strain. The source says:
HCV NS3 protease complexes, derived from the BMS strain, H77 strain or J4L6S strain, were generated, as described below. These purified recombinant proteins were generated for use in a homogeneous assay (see below) to provide an indication of how effective compounds of the present disclosure would be in inhibiting HCV NS3 proteolytic activity.
Serum from an HCV-infected patient was obtained from Dr. T. Wright, San Francisco Hospital. An engineered full-length cDNA (compliment deoxyribonucleic acid) template of the HCV genome (BMS strain) was constructed from DNA fragments obtained by reverse transcription-PCR(RT-PCR) of serum RNA (ribonucleic acid) and using primers selected on the basis of homology between other genotype la strains. From the determination of the entire genome sequence, a genotype la was assigned to the HCV isolate according to the classification of Simmonds et al. (See P Simmonds, K A Rose, S Graham, S W Chan, F McOmish, B C Dow, E A Follett, P L Yap and H Marsden, J. Clin. Microbiol., 31(6), 1493-1503 (1993)). […]

Our source for the IC50 values is patent US7888464B2, “Hepatitis C virus inhibitors” (Bristol-Myers Squibb Company, priority 2006, dated 2011).

T1 sequence (O92972 1027-1711 C1454S/C1711G, one chain of several): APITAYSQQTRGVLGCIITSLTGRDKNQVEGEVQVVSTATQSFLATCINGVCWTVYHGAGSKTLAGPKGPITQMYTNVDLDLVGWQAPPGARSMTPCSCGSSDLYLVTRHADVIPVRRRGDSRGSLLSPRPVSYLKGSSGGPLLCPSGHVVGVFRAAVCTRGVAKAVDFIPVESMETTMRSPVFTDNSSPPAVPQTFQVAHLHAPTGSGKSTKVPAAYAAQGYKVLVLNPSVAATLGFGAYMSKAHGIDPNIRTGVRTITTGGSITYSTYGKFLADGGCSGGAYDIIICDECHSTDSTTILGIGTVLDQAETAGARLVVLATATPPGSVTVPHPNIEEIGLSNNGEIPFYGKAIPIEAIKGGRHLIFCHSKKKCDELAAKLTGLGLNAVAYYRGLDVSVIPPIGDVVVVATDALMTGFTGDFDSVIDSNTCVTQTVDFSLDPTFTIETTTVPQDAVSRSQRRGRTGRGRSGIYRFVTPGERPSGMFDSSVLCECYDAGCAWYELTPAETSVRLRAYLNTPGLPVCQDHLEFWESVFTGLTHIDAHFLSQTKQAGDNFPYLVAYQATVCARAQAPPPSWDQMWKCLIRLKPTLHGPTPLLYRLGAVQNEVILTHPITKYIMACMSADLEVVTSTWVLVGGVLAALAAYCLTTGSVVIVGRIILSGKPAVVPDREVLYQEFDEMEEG

Turning to `C=C[C@@H]1C[C@]1(NC(=O)[C@@H]1C[C@@](O)(c2ccc(-c3ccccc3)cc2)CN1C(=O)[C@@H](NC(=O)OC(C)(C)C)C(C)(C)C)C(=O)NS(=O)(=O)C1CC1` [Compound 3], the IC50 in experiment [1] is 75 µM; in experiment [2], 0.0011 µM.
